Test results reported in US6864285B1, “Covalent derivatives of alkanolamides of monocarboxylic and dicarboxylic acids functionally active on the CB2 cannabinoid receptor” (Innovet Italia S.r.l., priority 1999, dated 2005).
Values after ≈ are worked out from the molar mass of the structure shown.

Tests used:
[1] = Lipid/water partition parameter RM from thin-film chromatography on silica gel; assay type: physicochemical; conditions: for ΔRM solvent 1 / RM solvent 1 / RF solvent 1: Solvent 1: 100% ethyl acetate; for ΔRM solvent 1 / ΔRM solvent 2: RM of derivative minus RM of corresponding alkanolamide; for RM solvent 1 / RM solvent 2: RM=log (1/Rf−1); for RF solvent 1 / RF solvent 2: silica gel; for ΔRM solvent 2 / RM solvent 2 / RF solvent 2: Solvent 2: heptane:isopropanol:ethyl acetate:H2O 40:20:50:2
Experimental: The chemical and physical characteristics of the derivatives according to the invention were evaluated by quantitative measurement of the lipid/water partition parameter.
A useful parameter for evaluating the properties of a compound in relation to its possible absorption is in fact constituted by the coefficient of partition between the lipid phase and the aqueous phase, which is considered to be an expression of its lipophilicity and its degree of hydrophilicity. […] For the purpose of evaluating the characteristics of the derivatives of the invention, the partition parameter RM between the lipid and the aqueous phase, extrapolated from thin-film partition chromatography, was calculated; this parameter is commonly used to evaluate the lipophilic characteristics of compounds (Tomlinson E. J. Chromatogr. 1975, 113, 1) and is commonly used, for example, for local anaesthetics, in which a correlation has been shown between this parameter and biological activity (Bachrata M. et al. J. Chromatogr. 1979, 171, 29-36).
The partition parameter RM between the lipid phase and the aqueous phase was calculated both for the derivatives and for the non-substituted alkanolamides, from the Rf value obtained by thin-film chromatography on silica gel (particles of […], mean porosity 60 Å, thickness 0.25 mm on glass plate) in accordance with the formula: RM=log (1/Rf−1) and the ΔRM was obtained from the difference between the RM coefficients of the derivative and of the corresponding alkanolamide.

[2] = Solubility in water and in organic solvents (chemical and physical characteristics); conditions: for solubility in water: in words
CB1 receptor = target: T1, CB1 receptor (Mus musculus, UniProt P47746); experiment: Binding of [3H]SR141716A to membranes of N18TG2 cells; conditions: cell membranes, 300 pM ligand, 90' at 30° C.; read-out: Ki CB1 Receptor N18TG2 cells Lig. [3H]SR141716A
T1 construct: endogenous in cells; host or cells: mouse N18TG2 neuroblastoma cells
Source text: (§1) Effect of alkanolamide molecules on the binding of the synthetic ligands of the CB2 and CB1 cannabinoid receptors, respectively.
(§2) Rat RBL-2H3+ leukemic basophilic cells, which selectively express the cannabinoid CB2 receptor, and mouse N18TG2 neuroblastoma cells which selectively express the CB1 cannabinoid receptor were used. The cells were cultivated as described above (Facci L. et al. (1995) Proc. Natl: Acad: Sci. U.S.A. 92:: 3376-3380; Bisogno T. et al. 1997 J. Biol. Chem., 272: 3315-3323). WIN 55,212.2 was used as the selectively agonist synthetic ligand for the CB2 receptor.
SR141716A was used as the selective antagonist for the CB1 receptor.
(§3) [^3H]SR141716A (55 Ci/mmol) was supplied by Amersham; [^3H]WIN55,212-2 (43 Ci/mmol) was supplied by NEN. The binding tests were performed with membranes of the cells resuspended in 50 mMol Tris pH 7.0 buffer; 2.5 mMol MgCl2, 0.8 mMol EDTA; 0.05% bovine serum albumin (BSA); 0.01% ethanol, in the presence of 100 μM of phenyl-methyl-sulphonyl fluoride (PMSF-Sigma), with the use, of 300 pM of [^3H]SR141716A and of [^3H]WIN55,212-2, respectively, as the ligand.
(§4) The membranes were incubated for 90′ at 30° C. and filtered on glass microfibre filters (GFC-Whatman) and the radioactivity was detected by liquid scintillation. The specific binding was calculated with the use of either 10 μM SR141716A or 10 μM HU-210.
(§5) The Ki values were calculated by Chang-Prusoff's equation and expressed as concentration μM.

CB2 receptor = target: T2, CB2 receptor (Rattus norvegicus, UniProt Q9QZN9); experiment: Binding of [3H]WIN55,212-2 to membranes of RBL-2H3+ cells; conditions: cell membranes, 300 pM ligand, 90' at 30° C.; read-out: Ki CB2 receptor RBL-2H3 + cells Lig. [3H]WIN55, 212-2
T2 construct: endogenous in cells; host or cells: rat RBL-2H3+ leukemic basophilic cells
T2 sequence (Q9QZN9 1-360): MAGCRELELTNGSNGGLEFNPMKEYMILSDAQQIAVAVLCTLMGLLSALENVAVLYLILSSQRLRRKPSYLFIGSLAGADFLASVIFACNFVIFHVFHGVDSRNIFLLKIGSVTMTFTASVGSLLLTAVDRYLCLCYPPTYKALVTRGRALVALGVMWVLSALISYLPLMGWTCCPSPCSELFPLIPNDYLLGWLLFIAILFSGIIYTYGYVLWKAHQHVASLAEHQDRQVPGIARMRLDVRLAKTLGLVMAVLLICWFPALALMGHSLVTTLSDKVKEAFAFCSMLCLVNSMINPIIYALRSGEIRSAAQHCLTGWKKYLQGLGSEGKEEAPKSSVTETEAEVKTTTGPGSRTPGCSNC
Source text: as §1, §2
HU-210 was used as the selective […] for the CB2 receptor.
as §3, §4, §5

[3] = ethanol, organic solvent or mixture
[4] = ethyl acetate, organic solvent or mixture
[5] = n-octanol, organic solvent or mixture

T1 sequence (P47746 whole entry): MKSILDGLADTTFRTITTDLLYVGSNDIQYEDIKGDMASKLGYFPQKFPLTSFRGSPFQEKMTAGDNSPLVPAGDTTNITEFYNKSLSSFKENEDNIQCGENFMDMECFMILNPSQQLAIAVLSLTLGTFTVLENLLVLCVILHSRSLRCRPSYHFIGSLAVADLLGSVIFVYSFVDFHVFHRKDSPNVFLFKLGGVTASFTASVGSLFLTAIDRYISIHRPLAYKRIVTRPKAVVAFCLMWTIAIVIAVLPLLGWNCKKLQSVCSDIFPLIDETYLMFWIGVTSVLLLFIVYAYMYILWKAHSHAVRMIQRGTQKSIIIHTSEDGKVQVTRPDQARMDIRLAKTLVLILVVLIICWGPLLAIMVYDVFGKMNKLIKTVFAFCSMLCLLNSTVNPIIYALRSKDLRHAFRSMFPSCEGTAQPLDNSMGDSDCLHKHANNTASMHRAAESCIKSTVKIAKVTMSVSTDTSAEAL

Compound: CCCCCCCCCCCCCCCC(=O)NCCOC(=O)OCC [Example 1, N-[2-(ethoxycarbonyl)oxyethyl]hexadecanamide]
- ΔRM solvent 1 [1]: −1.001
- RM solvent 1 [1]: −0.213
- RF solvent 1 [1]: 0.62
- ΔRM solvent 2 [1]: −0.403
- RM solvent 2 [1]: −0.368
- RF solvent 2 [1]: 0.70
- solubility in water [2]: slightly soluble
- Ki (CB1 receptor): > 15 µM
- solubility (physchem; [3]): 10000 µg/mL (≈ 26.9 mM)
- solubility (physchem; [4]): 10000 µg/mL (≈ 26.9 mM)
- solubility (physchem; [5]): 10000 µg/mL (≈ 26.9 mM)
- Ki (CB2 receptor): 0.006 ± 0.0018 µM

Compound: CCCCCCCCCCCCCCCC(=O)NCCOC(=O)OCC(C)C [Example 2, N-[2-(isobutyloxycarbonyl)oxyethyl] hexadecanamide]
- ΔRM solvent 1 [1]: −1.076
- RM solvent 1 [1]: −0.288
- RF solvent 1 [1]: 0.66
- ΔRM solvent 2 [1]: −0.467
- RM solvent 2 [1]: −0.432
- RF solvent 2 [1]: 0.73
- solubility in water [2]: slightly soluble
- solubility (physchem; [3]): 10000 µg/mL (≈ 25 mM)
- solubility (physchem; [4]): 1000 µg/mL (≈ 2.5 mM)
- solubility (physchem; [5]): 10000 µg/mL (≈ 25 mM)

Compound: CCCCCCCCCCCCCCCC(=O)NCCCOC(=O)OCC [Example 3, N-[3-(ethoxycarbonyl)oxypropyl]hexadecanamide]
- ΔRM solvent 1 [1]: −1.020
- RM solvent 1 [1]: −0.194
- RF solvent 1 [1]: 0.61
- ΔRM solvent 2 [1]: −0.397
- RM solvent 2 [1]: −0.327
- RF solvent 2 [1]: 0.68
- solubility in water [2]: slightly soluble
- solubility (physchem; [3]): 10000 µg/mL (≈ 25.9 mM)
- solubility (physchem; [4]): 10000 µg/mL (≈ 25.9 mM)
- solubility (physchem; [5]): 10000 µg/mL (≈ 25.9 mM)

Compound: CCCCCCCCCCCCCCCC(=O)NCCOC(=O)NCc1ccccc1 [Example 5]
- ΔRM solvent 1 [1]: −0.736
- RM solvent 1 [1]: 0.052
- RF solvent 1 [1]: 0.47
- ΔRM solvent 2 [1]: −0.304
- RM solvent 2 [1]: −0.269
- RF solvent 2 [1]: 0.65
- solubility in organic solvents: ethyl acetate, hot ([2]; ethyl acetate, hot): 10 mg/ml in ethyl
- solubility in water [2]: slightly soluble
- solubility in organic solvents: n-octanol, hot ([2]; n-octanol, hot): 10 mg/ml in ethyl

Compound: CCCCCCCCCCCCCCCC(=O)NCCOC(=O)OCCN1CCCCC1 [Example 7, N-[2-[(2-piperidinoethoxy)carbonyl]oxyethyl] hexadecanamide]
- ΔRM solvent 1 [1]: 0.49
- RM solvent 1 [1]: 1.28
- RF solvent 1 [1]: 0.05
- solubility in water [2]: slightly soluble
- Ki (CB1 receptor): > 15 µM
- solubility (physchem; [3]): 10000 µg/mL (≈ 22 mM)
- Ki (CB2 receptor): 0.009 ± 0.0025 µM

Compound: CCCCCCCCCCCCCCCC(=O)NCCOC(=O)OCCN1CCCCC1.CS(=O)(=O)O [Example 8, N-[2-[(2-piperidinoethoxy)carbonyl]oxyethyl] hexadecanamide methane sulphonate]
- solubility (physchem; DMSO, organic solvent or mixture): 10000 µg/mL
- solubility (physchem; [3]): 10000 µg/mL
- solubility (physchem; water): 10000 µg/mL

Compound: CCCCCCCCCCCCCCCC(=O)NCCOC1CCCO1 (centres unmarked) [Example 9, tetrahydrofuranyl ether of N-(2-hydroxyethyl) hexadecanamide]
- ΔRM solvent 1 [1]: −0.630
- RM solvent 1 [1]: 0.158
- RF solvent 1 [1]: 0.41
- ΔRM solvent 2 [1]: −0.247
- RM solvent 2 [1]: −0.213
- RF solvent 2 [1]: 0.62
- solubility in organic solvents: ethanol [2]: 10 mg/ml in ethanol
- solubility in water [2]: slightly soluble

Compound: O=C(CCCCCCCC(=O)NCCOC1CCCO1)NCCOC1CCCO1 (centres unmarked) [Example 10, tetrahydrofuranyl ether of N,N^1-bis(2-hydroxyethyl) nonandiamide]
- ΔRM solvent 1 [1]: −0.424
- RM solvent 1 [1]: −0.035
- RF solvent 1 [1]: 0.52
- ΔRM solvent 2 [1]: −0.584
- RM solvent 2 [1]: 0.105
- RF solvent 2 [1]: 0.44
- solubility in organic solvents: ethanol [2]: 10 mg/ml in ethanol

Compound: CCCCCCCCCCCCCCCC(=O)NCCOC1CCCCO1 (centres unmarked) [Example 11, tetrahydropyranyl ether of N-(2-hydroxyethyl) hexadecanamide]
- ΔRM solvent 1 [1]: 0.666
- RM solvent 1 [1]: 0.122
- RF solvent 1 [1]: 0.43
- ΔRM solvent 2 [1]: −0.304
- RM solvent 2 [1]: −0.269
- RF solvent 2 [1]: 0.65
- solubility in organic solvents: ethyl acetate ([2]; ethyl acetate): 10 mg/ml in ethyl
- solubility in water [2]: slightly soluble
- solubility in organic solvents: n-octanol ([2]; n-octanol): 10 mg/ml in ethyl

Compound: O=C(CCCCCCCC(=O)NCCOC1CCCCO1)NCCOC1CCCCO1 (centres unmarked) [Example 12, tetrahydropyranyl ether of N,N^1-bis(2-hydroxyethyl) nonandiamide]
- ΔRM solvent 1 [1]: −0.494
- RM solvent 1 [1]: −0.105
- RF solvent 1 [1]: 0.56
- ΔRM solvent 2 [1]: −0.706
- RM solvent 2 [1]: −0.017
- RF solvent 2 [1]: 0.51
- solubility in organic solvents: ethanol [2]: 10 mg/ml in ethanol

Compound: CCCCCCCC/C=C\CCCCCCCC(=O)NCCOC(=O)OCC [Example 13, N-[2-(ethoxycarbonyl)oxyethyl] oleoylamide]
- ΔRM solvent 1 [1]: −0.984
- RM solvent 1 [1]: −0.231
- RF solvent 1 [1]: 0.63
- ΔRM solvent 2 [1]: −0.365
- RM solvent 2 [1]: −0.347
- RF solvent 2 [1]: 0.69
- solubility in organic solvents: ethanol [2]: 10 mg/ml in ethanol,
- solubility in water [2]: slightly soluble

Compound: CCCCC1C(=O)N(c2ccccc2)N(c2ccccc2)C1=O [phenyl butazone, reference compound]
- Ki (CB1 receptor): > 15 µM
- Ki (CB2 receptor): > 15 µM
